Values of other authors in patent US20050042712A1, “Methods, compositions and instruments to predict antimicrobial or preservative activity” (ADVANCED MEDICAL OPTICS, INC., priority 2003, published 2005).
Like-named read-outs stand apart in the source and are kept apart here.

## O=C1OC2(c3ccccc31)c1cc(Br)c(O)c(Br)c1Oc1c2cc(Br)c(O)c1Br.[Na].[Na] [Eosin Y, 2′,4′,5′,7′-Tetrabromo-3′,6′-dihydroxyspiro(isobenzofuran-1(3H),9′-(9H)xanthen)-3-one disodium salt]
Carboxyphenyl group
  pKa: 2.7
Phenolate anion
  pKa: 3.6
water
  solubility in water: freely soluble in water
